Measured values from PubChem BioAssay (NCI).
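Each compound was tested at five concentrations against cells in 96-well plates for 48 hours. GI50 = concentration required for 50% inhibition of growth. TGI marks complete inhibition of growth.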

Columns and labels:
Experiment in all cases: NCI tumour cell line growth inhibition, 48 h
SF-539 CNS = system: SF-539 CNS
UO-31 renal = system: UO-31 renal
DU-145 prostate = system: DU-145 prostate
K-562 leukemia = system: K-562 leukemia
OVCAR-8 ovarian = system: OVCAR-8 ovarian
LOX IMVI melanoma = system: LOX IMVI melanoma
CCRF-CEM leukemia = system: CCRF-CEM leukemia
U251 CNS = system: U251 CNS
HOP-92 NSCLC = system: HOP-92 NSCLC
MDA-N = system: MDA-N

Structure (SMILES) | GI50 (SF-539 CNS) | TGI (SF-539 CNS) | GI50 (UO-31 renal) | TGI (UO-31 renal) | GI50 (DU-145 prostate) | TGI (DU-145 prostate) | GI50 (K-562 leukemia) | TGI (K-562 leukemia) | GI50 (OVCAR-8 ovarian) | TGI (OVCAR-8 ovarian) | GI50 (LOX IMVI melanoma) | TGI (LOX IMVI melanoma) | GI50 (CCRF-CEM leukemia) | TGI (CCRF-CEM leukemia) | GI50 (U251 CNS) | TGI (U251 CNS) | GI50 (HOP-92 NSCLC) | TGI (HOP-92 NSCLC) | TGI (MDA-N)
COc1ccc2c(c1)O/C(=C\c1cccc(OCC(=O)Nc3nc4c(s3)CCCC4)c1)C2=O | 16.7 µM | 44.1 µM | 1.69 µM | 3.15 µM | 5.01 µM | 19.7 µM | 4.08 µM | > 78.3 µM | > 21.7 µM | > 70.4 µM | 1.16 µM | 3.32 µM | 2.07 µM | 7.79 µM | 2.8 µM | 8.31 µM | 3.68 µM | 18.5 µM | 
CC(CC(C#N)(c1ccccc1)c1ccccc1)N1CCCCC1 (stereo unspecified) |  |  |  | 79.6 µM |  | > 100 µM |  | 45.5 µM |  | > 100 µM |  | 33.5 µM |  | 46.6 µM |  | > 100 µM |  | > 100 µM | 46.7 µM
COc1ccccc1NC(=O)CC(=O)N1N=C(C)C(N=Nc2ccc(S(N)(=O)=O)cc2)C1=O (stereo unspecified) |  | > 100 µM |  | > 100 µM |  |  |  |  |  | > 100 µM |  | > 100 µM |  |  |  | > 100 µM |  | > 100 µM | 
O=C1/C(=C/c2ccccc2S)N=C(c2ccccc2)N1c1nc2ccc(Sc3ccccc3)cc2[nH]1 |  |  |  | > 100 µM |  | > 100 µM |  | > 100 µM |  | > 100 µM |  | > 100 µM |  | > 100 µM |  | 51.7 µM |  | > 100 µM | 34.4 µM
CCOP(=O)(OCC)C1C(CO)OC(n2ccc(=O)[nH]c2=O)C1O (stereo unspecified) |  | > 100 µM |  | > 100 µM |  |  |  | > 100 µM |  | > 100 µM |  | > 100 µM |  |  |  |  |  | > 100 µM | > 100 µM
COc1cc2c(cc1OCCCCOc1cc(-c3ccc(F)cc3)nc(C)n1)N=C[C@@H]1CCCN1C2=O |  | 2.31 µM |  | 12 µM |  | 50 µM |  | 9.5 µM |  | 6.6 µM |  | 0.663 µM |  | 3.17 µM |  | 2.55 µM |  | 6.18 µM | 
N#Cc1c(-c2ccccc2)/c(=C\Nc2ccc(Cl)cc2)c(=O)n2c1nc1ccccc12 |  | > 100 µM |  | > 100 µM |  |  |  |  |  | > 100 µM |  | > 100 µM |  | 84.9 µM |  | > 100 µM |  |  | > 100 µM
CC(C)(C)C1=Cc2cc3cc(C(C)(C)C)[nH]c(=O)c3cc2S(=O)(=O)N1 |  |  |  | 35.8 µM |  |  |  | > 100 µM |  | > 100 µM |  |  |  | 56.9 µM |  | 34 µM |  | 39.3 µM | 
COc1ccc(-c2cc(=O)c3cc4c(cc3[nH]2)OCO4)c(OC)c1OC |  | > 100 µM |  | > 100 µM |  |  |  | > 100 µM |  | > 100 µM |  | > 100 µM |  | > 100 µM |  | > 100 µM |  | > 100 µM | 
O=C1C(c2c(O)[nH]c3ccc(S(=O)(=O)O)cc23)=Nc2ccccc21 |  |  |  | > 100 µM |  | > 100 µM |  | > 100 µM |  | > 100 µM |  | > 100 µM |  | > 100 µM |  | > 100 µM |  | > 100 µM | > 100 µM
COc1ccc(Nc2nc3ccc(C(F)(F)F)cc3nc2C(=O)O)cc1OC |  |  |  | 43.7 µM |  | > 100 µM |  | > 100 µM |  | > 100 µM |  | > 100 µM |  |  |  | > 100 µM |  |  | > 100 µM
Nc1nn2c(C(Br)Br)cc(C(Br)Br)nc2c1[N+](=O)[O-] |  | 1.16 µM |  | 2.5 µM |  | 3.46 µM |  | 0.857 µM |  |  |  | 0.799 µM |  | 0.51 µM |  | 2.54 µM |  |  | 2.26 µM
C=C(Cl)/C(=C\Cl)CCC(Br)C(C)C (stereo unspecified) |  | > 100 µM |  | > 100 µM |  | > 100 µM |  | > 100 µM |  |  |  | 31.4 µM |  | > 100 µM |  | > 100 µM |  | > 100 µM | > 100 µM
C/C(=C\c1ccccc1)C(=O)CCN1CCOCC1 |  | 34.6 µM |  | 41.5 µM |  |  |  | > 69.7 µM |  | 41.4 µM |  | 34.6 µM |  | > 67.2 µM |  | 30.7 µM |  | 37.1 µM | 
COCOc1ccc(OC)cc1 |  | > 100 µM |  | > 100 µM |  |  |  | > 100 µM |  | > 100 µM |  | > 100 µM |  | > 100 µM |  | > 100 µM |  | > 100 µM | 
c1ccc2c(c1)[nH]c1nc3cc(-c4ccc5nc6c(nc5c4)[nH]c4ccccc46)ccc3nc12 |  |  |  | > 100 µM |  | > 100 µM |  |  |  | > 100 µM |  | > 100 µM |  | > 100 µM |  | > 100 µM |  | > 21.5 µM | > 100 µM
C1CCSCCCCSCCCCSCCCCSC1 |  | > 100 µM |  | > 100 µM |  | > 100 µM |  | > 100 µM |  | > 100 µM |  | > 100 µM |  |  |  | > 100 µM |  | > 100 µM | > 100 µM
Cc1cn2c(/C=C3/C(=O)Nc4cccc(Cl)c43)c(Cl)nc2s1 |  |  |  | > 100 µM |  | > 100 µM |  | > 100 µM |  | > 100 µM |  | > 100 µM |  | 28 µM |  | 27.3 µM |  | > 100 µM | > 100 µM
CC(=O)OC[C@]1(C(=O)C(O)c2ccoc2)[C@H](C)CC[C@@]23COC(=O)C2=CCC[C@@H]31 (stereo partly specified) |  | > 10 µM |  | > 10 µM |  | > 10 µM |  |  |  | > 10 µM |  | > 10 µM |  | > 10 µM |  | > 10 µM |  | > 10 µM | > 10 µM
CCC[C@H]1C(=O)N=C(N)N1C(=O)OCc1ccccc1 |  | > 100 µM |  | > 100 µM |  |  |  | > 100 µM |  | > 100 µM |  | > 100 µM |  |  |  | > 100 µM |  |  | > 100 µM
CCNC(=O)Nc1ccccn1 |  | > 100 µM |  | > 100 µM |  | > 100 µM |  | > 100 µM |  | > 100 µM |  |  |  | > 100 µM |  | > 100 µM |  | > 100 µM | > 100 µM
CCSC1=CC(=O)c2nc3ccccc3c3ccnc1c23 |  | 13.2 µM |  | 19 µM |  | 15.5 µM |  |  |  | > 100 µM |  | > 36.1 µM |  | > 25.9 µM |  | 14.5 µM |  | 38.6 µM | 4 µM
COc1ccc(N[C@H](CSc2ccc(C)cc2)c2ccc(F)cc2)cc1 |  | > 100 µM |  | > 100 µM |  | > 100 µM |  | > 100 µM |  | > 100 µM |  | > 100 µM |  | > 100 µM |  | > 100 µM |  |  | > 100 µM
CC(C)(C)N=c1n(C(C)(C)C)oc(=O)n1C(C)(C)C |  | > 100 µM |  | > 100 µM |  |  |  | > 100 µM |  | > 100 µM |  | > 100 µM |  | > 100 µM |  | > 100 µM |  | > 100 µM | > 100 µM
